Reference: USRE39197E1, “Cell adhesion-inhibiting antiinflammatory and immune-suppressive compounds” (Abbott Laboratories, priority 1998, dated 2006)

What was measured:
[1] = target: T1, interaction between the integrin LFA-1 and its adhesion partner ICAM-1 (Homo sapiens, UniProt P20701); test: ICAM-1/LFA-1 Biochemical Interaction Assay; assay type: binding; settings: 4 μM compound; recombinant LFA-1, biotinylated ICAM-1/Ig
T1 construct: Recombinant LFA-1 (100 μL of 0.7 μg/ml mL, ICOS Corporation) in D-PBS; purchased ICOS Corporation
Procedure: Compounds that antagonize the interaction between ICAM-1 and LFA-1 can be identified, and their activities quantitated, using both biochemical and cell-based adhesion assays. A primary biochemical assay measures the ability of the compound in question to block the interaction between the integrin LFA-1 and its adhesion partner ICAM-1, as described below:
ICAM-1/LFA-1 Biochemical Interaction Assay
In the biochemical assay, 100 μL of anti-LFA-1 antibody (ICOS Corporation) at a concentration of 5 μg/ml mL in Dulbecco's phosphate-buffered saaline (D-PBS) is used to coat wells of a 96-well microtiter plate overnight at 4° C. The wells are were then washed twice with wash buffer (D-PBS w/o Ca^++ or Mg^++, 0.05% Tween 20) and blocked by addition of 200 μL of D-PBS, 5% fish skin gelatin. Recombinant LFA-1 (100 μL of 0.7 μg/ml mL, ICOS Corporation) in D-PBS is was then added to each well. Incubation continues continued for 1 hour at room temperature and the wells are were washed twice with wash buffer. Serial dilutions of compounds being assayed as ICAM-1/LFA-1 antagonists, were prepared as 10 mM stock solutions in dimethyl sulfoxide (DMSO), are were diluted in D-PBS, 2 mM MgCl2, 1% fish skin gelatin and 50 μL of each dilution was added to duplicate wells. This is was followed by the addition of 50 μL of 0.8 μg/ml mL biotinylated recombinant ICAM-1/Ig (ICOS Corporation) to the wells and the plates are were incubated at room temperature for 1 hour. The wells are were then washed twice with wash buffer and 100 μL of Europium-labeled Streptavidin (Wallac Oy) diluted 1:100 in Delfia assay buffer (Wallac Oy), are was then added to the wells. Incubation proceeds proceeded for 1 hour at room temperature. The wells are were washed eight times with wash buffer and 100 μL of enhancement solution (Wallac Oy, cat. No. 1244-105) are was added to each well. Incubation proceeds proceeded for 5 minutes with constant mixing. Time-resolved fluorimetry measurements are were made using the a Victor 1420 Multilabel Counter (Wallac Oy) and the percent inhibition of each candidate compound is was calculated using the following equation: [formula] where “background” refers to wells that are were not coated with anti-LFA-1 antibody.

[2] = system: adherence of JY-8 cells (expressing LFA-1) to immobilized ICAM-1; test: ICAM-1/JY-8 Cell Adhesion Assay; assay type: cell-based, human
Procedure: ICAM-1/JT-8 Cell Adhesion Assay
For measurment measurement of inhibotory inhibitory activity in the cell-based adhesion assay, 96-well microtiter plates are were coated with 70 μL of recombinat recombinant ICAM-1/Ig (ICOS Corporation) at a concentration of 5 μg/mL in D-PBS w/o without Ca^++ or Mg++ or Mg^++ overnight at 4° C. The wells are were then washed twice with D-PBS and blocked by addition of 200 μL of D-PBS, 5% fish skin gelatin by incubation for 1 hour at room temperature. […] The percent inhibition of a candidate compound at a given concentration is was calculated using the following equation: [formula] and these concentration/inhibition data are were used to generate does response curves, from which IC50 values are were derived.

[3] = JY-8 cells on immobilized ICAM-1/Ig
[4] = Homo sapiens, JY-8, JY-8 cells on immobilized ICAM-1/Ig

T1 sequence (P20701 26-1170): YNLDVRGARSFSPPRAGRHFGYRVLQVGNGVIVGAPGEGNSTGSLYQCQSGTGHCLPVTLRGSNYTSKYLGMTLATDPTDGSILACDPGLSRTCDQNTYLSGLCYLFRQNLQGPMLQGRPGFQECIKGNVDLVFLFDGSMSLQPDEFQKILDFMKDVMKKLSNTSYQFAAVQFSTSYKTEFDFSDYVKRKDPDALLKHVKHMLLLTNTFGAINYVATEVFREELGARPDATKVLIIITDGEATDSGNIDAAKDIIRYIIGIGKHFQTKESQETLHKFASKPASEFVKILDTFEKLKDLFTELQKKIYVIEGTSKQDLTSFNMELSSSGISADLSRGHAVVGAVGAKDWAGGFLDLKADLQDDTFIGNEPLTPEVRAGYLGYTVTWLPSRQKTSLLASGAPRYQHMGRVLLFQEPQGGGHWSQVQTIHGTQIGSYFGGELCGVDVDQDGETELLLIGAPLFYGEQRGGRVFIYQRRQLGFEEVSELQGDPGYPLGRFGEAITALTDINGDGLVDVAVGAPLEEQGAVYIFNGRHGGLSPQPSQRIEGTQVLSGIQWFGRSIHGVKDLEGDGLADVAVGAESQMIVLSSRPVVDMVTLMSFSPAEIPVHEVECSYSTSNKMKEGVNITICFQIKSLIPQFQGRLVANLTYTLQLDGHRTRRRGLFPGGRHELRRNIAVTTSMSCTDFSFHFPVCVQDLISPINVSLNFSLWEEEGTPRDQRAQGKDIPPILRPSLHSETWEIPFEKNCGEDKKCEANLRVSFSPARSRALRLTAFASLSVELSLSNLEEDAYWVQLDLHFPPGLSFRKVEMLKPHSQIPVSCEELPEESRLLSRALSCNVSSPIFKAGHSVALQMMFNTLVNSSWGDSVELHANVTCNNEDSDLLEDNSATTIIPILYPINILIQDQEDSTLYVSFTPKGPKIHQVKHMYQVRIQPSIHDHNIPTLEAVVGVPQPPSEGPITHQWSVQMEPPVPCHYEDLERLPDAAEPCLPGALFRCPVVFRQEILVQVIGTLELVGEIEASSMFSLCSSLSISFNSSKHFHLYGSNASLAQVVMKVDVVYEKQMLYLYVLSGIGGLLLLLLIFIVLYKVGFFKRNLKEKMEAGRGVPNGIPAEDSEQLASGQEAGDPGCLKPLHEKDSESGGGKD
T1 sequence (P05107 23-769 partner): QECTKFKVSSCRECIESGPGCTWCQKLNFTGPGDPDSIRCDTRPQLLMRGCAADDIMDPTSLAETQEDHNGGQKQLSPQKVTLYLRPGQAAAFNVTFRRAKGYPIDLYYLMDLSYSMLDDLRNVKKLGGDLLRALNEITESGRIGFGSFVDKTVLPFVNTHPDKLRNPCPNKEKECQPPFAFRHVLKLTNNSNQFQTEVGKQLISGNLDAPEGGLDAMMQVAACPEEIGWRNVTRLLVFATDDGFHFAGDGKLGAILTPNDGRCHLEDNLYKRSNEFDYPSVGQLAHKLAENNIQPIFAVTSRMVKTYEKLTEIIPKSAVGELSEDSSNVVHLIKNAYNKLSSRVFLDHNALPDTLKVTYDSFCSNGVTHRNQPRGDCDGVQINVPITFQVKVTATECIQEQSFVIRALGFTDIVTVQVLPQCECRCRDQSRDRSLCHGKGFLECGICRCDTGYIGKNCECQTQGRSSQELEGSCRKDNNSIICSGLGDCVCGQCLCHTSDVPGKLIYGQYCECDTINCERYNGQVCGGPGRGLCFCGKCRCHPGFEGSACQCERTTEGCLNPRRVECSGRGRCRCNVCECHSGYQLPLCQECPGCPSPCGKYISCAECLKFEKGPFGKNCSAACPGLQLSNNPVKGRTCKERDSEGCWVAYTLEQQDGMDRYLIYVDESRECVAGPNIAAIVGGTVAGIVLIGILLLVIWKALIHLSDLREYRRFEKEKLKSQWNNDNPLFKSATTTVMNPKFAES

Compound	% inhibition @ 4 μM [1]	IC50 [2, 3]	inhibition at 4 µM [1]	IC50 [2, 4]
O=C(/C=C/c1ccc(Sc2ccccc2Br)c(Cl)c1)N1CCCCC1 [Example 19]	93%	0.45 µM	–	–
CC(C)(C)OC(=O)N1CCN(C(=O)/C=C/c2ccc(Sc3ccc(Cl)cc3Cl)c([N+](=O)[O-])c2)CC1 [Example 37, (2,4-Dichlorophenyl)[2-nitro-4-(E-((4-(tert-butoxycarbonyl)piperazin-1-yl)carbonyl)ethenyl)phenyl]sulfide]	–	–	91%	0.14 µM
CN1CCN(C(=O)/C=C/c2ccc(Sc3ccc(Cl)cc3Cl)c(Cl)c2)CC1 [Example 8, (2,4-Dichlorophenyl)[2-chloro-4-(E-((4-methylpiperazin-1-yl)carbonyl)ethenyl)phenyl]sulfide]	–	–	74%	2.9 µM
CC(=O)N1CCN(C(=O)/C=C/c2ccc(Sc3ccccc3CO)c([N+](=O)[O-])c2)CC1 [Example 48, (2-Hydroxymethylphenyl)[2-nitro-4-(E-((4-acetylpiperazin-1-yl)carbonyl)ethenyl)phenyl]sulfide]	–	–	89%	0.2 µM
(2-Chlorophenyl)[2-chloro-4-(E-((4-acetylpiperazin-1-yl)carbonyl))2-propenyl)phenyl]sulfide [Example 52]	86%	0.42 µM	–	–
O=C(/C=C/c1ccc(Sc2ccc(Cl)cc2Cl)c(Cl)c1)N1CCOCC1 [Example 7, (2,4-Dichlorophenyl)[2-chloro-4-(E-((1-morpholinyl)carbonyl)ethenyl)phenyl]sulfide]	87%	1.2 µM	–	–
CN(C)N=Cc1ccccc1Sc1ccc(/C=C/C(=O)N2CCOCC2)cc1Cl [Example 61, (2-Formylphenyl)[2-chloro-4-(E-((1-morpholinyl)carbonyl)ethenyl)phenyl]sulfide, N,N-dimethyl hydrazone]	88%	0.54 µM	–	–
O=C(O)C1CCCN(C(=O)/C=C/c2ccc(Sc3ccc(Cl)cc3Cl)c(Cl)c2)C1 (stereo not drawn) [Example 20, (2,4-Dichlorophenyl)[2-chloro-4-(E-((3-carboxypiperidin-1-yl)carbonyl)ethenyl)phenyl]sulfide]	–	–	82%	3.3 µM
CC(C)(C)OC(=O)CN1CCN(C(=O)/C=C/c2ccc(Sc3ccc(Cl)cc3Cl)c([N+](=O)[O-])c2)CC1 [Example 42, (2,4-Dichlorophenyl)[2-nitro-4-(E-((4-(tert-butoxycarbonylmethyl)piperazin-1-yl)carbonyl)ethenyl)phenyl]sulfide]	–	–	56%	0.52 µM
O=C(/C=C/c1ccccc1Sc1ccc(Cl)cc1Cl)NCCCCCCO [Example 1, (2,4-Dichlorophenyl)[2-(E-((6-hydroxyhexylamino)carbonyl)ethenyl)phenyl]sulfide]	–	–	75%	2.1 µM
O=C(/C=C/c1ccc(Sc2ccc(Cl)cc2Cl)c(Cl)c1)NCCO [Example 3, (2,4-Dichlorophenyl)[2-chloro-4-(E-((2-hydroxyethylamino)carbonyl)ethenyl)phenyl]sulfide]	–	–	75%	2.5 µM
CC(=O)N1CCN(C(=O)/C=C/c2ccc(Sc3ccc(C)cc3)c([N+](=O)[O-])c2)CC1 [Example 36, (4-Methylphenyl)[2-nitro-4-(E-((4-acetylpiperazin-1-yl)carbonyl)ethenyl)phenyl]sulfide]	–	–	90%	0.32 µM
CC(=O)N1CCCN(C(=O)/C=C/c2ccc(Sc3ccccc3Br)c(Cl)c2)CC1 [Example 22, (2-Bromophenyl)[2-chloro-4-(E-((4-acetylhomopiperazin-1-yl)carbonyl)ethenyl)phenyl]sulfide]	–	–	90%	0.2 µM
O=Cc1ccccc1Sc1ccc(/C=C/C(=O)N2CCOCC2)cc1Cl [Example 57, (2-Formylphenyl)[2-chloro-4-(E-((1-morpholinyl)carbonyl)ethenyl)phenyl]sulfide]	90%	0.22 µM	–	–
Cc1ccccc1Sc1ccc(/C=C/C(=O)N2CCN(c3ccccc3)CC2)cc1C(F)(F)F [Example 29, (2-Methylphenyl)[2-trifluoromethyl-4-(E-((4-phenylpiperazin-1-yl)carbonyl)ethenyl)phenyl]sulfide]	–	–	84%	0.16 µM
O=C(/C=C/c1ccc(Sc2ccccc2Br)c(Cl)c1)N1CCC(n2c(=O)[nH]c3ccccc32)CC1 [Example 24]	80%	8 µM	–	–
CC(=O)N1CCN(C(=O)/C=C/c2ccc(Sc3ccccc3C(C)(C)C)c([N+](=O)[O-])c2)CC1 [Example 51, (2-tert-Butylphenyl)[2-nitro-4-(E-((4-acetylpiperazin-1-yl)carbonyl)ethenyl)phenyl]sulfide]	–	–	84%	0.69 µM
CCN(CC)C(=O)CN1CCN(C(=O)/C=C/c2ccc(Sc3ccc(Cl)cc3Cl)c([N+](=O)[O-])c2)CC1 [Example 40, (2,4-Dichlorophenyl)[2-nitro-4-(E-((4-(diethylaminocarbonylmethyl)piperazin-1-yl)carbonyl)ethenyl)phenyl]sulfide]	–	–	90%	0.28 µM
Cc1ccccc1Sc1ccc(/C=C/C(=O)NCCN2CCOCC2)cc1C(F)(F)F [Example 28, (2-Methylphenyl)[2-trifluoromethyl-4-(E-((2-(1-morpholinyl)ethylamino)carbonyl)ethenyl)phenyl]sulfide]	87%	0.37 µM	–	–
CCOC(=O)CN(C)Cc1ccccc1Sc1ccc(/C=C/C(=O)N2CCOCC2)cc1Cl [Example 56, (2-((N-Ethoxycarbonylmethyl-N-methyl)aminomethyl)phenyl)[2-chloro-4-(E-((1-morpholinyl)carbonyl)ethenyl)phenyl]sulfide]	83%	0.51 µM	–	–
CC(=O)N1CCN(C(=O)/C=C/c2ccc(Sc3ccccc3N)c([N+](=O)[O-])c2)CC1 [Example 47, (2-Aminophenyl)[2-nitro-4-(E-((4-acetylpiperazin-1-yl)carbonyl)ethenyl)phenyl]sulfide]	–	–	82%	0.37 µM
O=C(/C=C/c1ccc(Sc2ccc(Cl)cc2Cl)c(Br)c1)NCCCN1CCCC1=O [Example 63, (2,4-Dichlorophenyl)[2-bromo-4-(E-((3-(2-oxopyrrolidin-1-yl)propylamino)carbonyl)ethenyl)phenyl]sulfide]	–	–	82%	0.85 µM
O=C(O)CN1CCN(C(=O)/C=C/c2ccc(Sc3ccc(Cl)cc3Cl)c([N+](=O)[O-])c2)CC1 [Example 44, (2,4-Dichlorophenyl)[2-nitro-4-(E-((4-(carboxymethyl)piperazin-1-yl)carbonyl)ethenyl)phenyl]sulfide]	–	–	78%	0.07 µM
CC(=O)N1CCN(C(=O)/C=C/c2ccc(Sc3c(Cl)cccc3C=O)c(Cl)c2)CC1 [Example 65, (2-Chloro-6-formylphenyl)[2-chloro-4-(E-((4-acetylpiperazin-1-yl)carbonyl)ethenyl)phenyl]sulfide]	–	–	86%	1.2 µM
CC(C)NC(=O)CN1CCN(Cc2ccccc2Sc2ccc(/C=C/C(=O)N3CCOCC3)cc2Cl)CC1 [Example 55, (2-(4-(iso-Propylaminocarbonylmethyl)piperazin-1-ylmethyl)phenyl)[2-chloro-4-(E-((1-morpholinyl)carbonyl)ethenyl)phenyl]sulfide]	82%	0.1 µM	–	–
CS(=O)(=O)N1CCN(C(=O)/C=C/c2ccc(Sc3ccc(Cl)cc3Cl)c([N+](=O)[O-])c2)CC1 [Example 39, (2,4-Dichlorophenyl)[2-nitro-4-(E-((4-(methanesulfonyl)piperazin-1-yl)carbonyl)ethenyl)phenyl]sulfide]	–	–	86%	0.25 µM
O=C(/C=C/c1ccc(Sc2ccc(Cl)cc2Cl)c(Cl)c1)N(CCO)CCO [Example 5, (2,4-Dichlorophenyl)[2-chloro-4-(E-((bis-(2-hydroxyethyl)amino)carbonyl)ethenyl)phenyl]sulfide]	–	–	73%	2.9 µM
